# How the values were obtained:
# [1] = test system: male patients diagnosed with autism; assay: Study HT 02-121: ECGs and laboratory evaluations; type: in vivo, human
# Method: (§1) The first five patients in each cohort were assigned to receive active medication in an open-label fashion. The patients were treated identically to the randomized patients with the following exceptions: (1) blood samples were drawn at baseline and 1 hour after dosing, and at Week 1, 2, 3 and 4 treatment visits 1 hour after dosing to determine the PK of L1-79, (2) EKGs were assessed at baseline and within 3-days prior to the Week 1, 2, 3 and 4 treatment visits as well as the 1-week and 4-week post-dosing follow-up visits, (3) vital signs, physical exams, and ASD assessments were performed at 1-week postdosing visit, (4) blood and urine samples were drawn at baseline and at Week 1, 2, 3 and 4 treatment visits 1 hour after dosing as well as the 1-week and 4-week post-dosing follow-up visits for safety analyses.
# Safety was the primary endpoint of the study. The following safety endpoints were assessed: ECGs, physical exams, laboratory evaluations (hematology, chemistry and urinalysis), vital signs, including orthostatic blood pressure, adverse events (AEs) and concomitant medications.
# Of note was the observation that half (50%) of the patients on L1-79 developed crystalluria compared to 30% of placebo treated patients. Of those that developed crystalluria during the study, approximately half (50%) had concentrated urine (specific gravity>1.025). […]
# [2] = Study HT 02-121: L1-79 plasma concentrations (pharmacokinetics); type: in vivo; details: male, human, open-label 200 mg TID, read-out: plasma concentration at 1-hour post-dose on Day 1
# Method: as §1
# Pharmacokinetics were assessed in the open-label 100 mg and 200 mg TID patients. On Day 1, L-79 concentrations were assessed one-hour post dose. Subsequently, a random L1-79 plasma concentration was assessed at Week 1, Week 2, Week 3 and Week 4.
# [3] = test system: male patients diagnosed with autism; assay: Study HT 02-121: Social Responsiveness Scale (SRS-2); type: in vivo, human; details: for SRS-2 Total T-Score: patients changing category of severity: placebo 2; for SRS-2 DSM-5 Social, Communication and Interaction T-score: patients with changes in severity categorization / SRS-2 Social Communication T-score: patients with categorical improvement / SRS-2 Social Motivation T-score: patients with categorical changes in clinical severity: placebo 3
# Method: This clinical study was a randomized double-blind, placebo-controlled two-cohort, 4-week dose-escalation study that incorporated two open-label treatment groups to assess the safety and efficacy of L1-79 100 mg and 200 mg TID in male patients between the ages of […] years of age diagnosed with autism. The first cohort of 20 patients was comprised of three groups of patients: The first group of five patients received open-label L1-79 100 mg TID and underwent PK and EKG assessments. The remaining two groups in this cohort consisted of 15 patients randomized on a 2:1 basis to receive L1-79 100 mg TID or placebo. The PK and safety data from the open-label L1-79 100 mg TID group was submitted to FDA for review and acceptance before the second cohort was enrolled. The second cohort was procedurally identical to the first. The second cohort of 20 patients was comprised of the same three groups of patients but a dose of 200 mg TID was used instead of 100 mg TID. The key inclusion criteria were as follows: (1) males between 13 and 21 years of age, (2) DSM-5 compliant diagnosis of autism spectrum disorder, confirmed by the Autistic Diagnosis Interview Review (ADIR), and by an ADOS-2 score consistent with a diagnosis of autism, (3) must have been stable on no more than one concomitant medication and no planned changes in psychosocial interventions during the study.
# The primary efficacy endpoint was the determination of the clinical improvement by the investigator as documented by the Clinical Global Impression (CGI) rating scales. Additional efficacy endpoints included: (1) changes from baseline in the Socialization and Communication Domains of the Vineland Adaptive Behavior Scales, Second Edition (VABS II) parent/caregiver rating form, (2) changes from baseline in the ADOS-2 Total Score and subscores, (3) changes in the Social Responsiveness Scale, Second Edition (SRS-2) Total Score and subscales, (4) changes in the ABC-C domains, (5) changes in the Repetitive Behavior Scale-Revised (RBS-R) Total Score and subscales. Given the exploratory design of this study only descriptive statistics were planned.
# In the preliminary study, all forms were completed at the study site in the presence of the investigator. In Cohort 1 of the present study, the VABS-II, SRS-2, ABC-C and RBS-R were filled out at home by the patient/patient's families prior to treatment visits and returned at treatment visits in order to expedite the execution of the study.
# This definition is consistent with accepted standards for judging mid and long term outcomes for experimental treatments studied in nearly every disorder, including autism. […] In ASD, children often go through periods of mild to moderate improvement or worsening in their behavioral, social and emotional symptom regulation related to a variety of identifiable and as yet unidentified factors (Boso, 2010; Jyonouchi, 2011). Thus, in a study of short duration, a ‘baseline’ measure may in fact be at the apex, midpoint or nadir of one of these oscillations.
# The Social Communication and Interaction scale are comprised of the DSM-5 criteria that make up the social communication and social interaction deficits required for the diagnosis of ASD.
smiles,measurement,setting,value
"CC(N)(Cc1ccc(O)cc1)C(=O)O (racemic) [L1-79, α-methyl-DL-tyrosine]",changes from baseline EKGs,[1]; any of the patients,No clinically significant changes
same,patients who developed crystalluria,"[1]; patients on L1-79, placebo 30%",50%
same,concentration at 1 h,[2],23 to 1680 ng/mL
same,SRS-2 Total T-Score: patients changing category of severity,[3]; 100 mg group,2 patients
same,"SRS-2 DSM-5 Social, Communication and Interaction T-score: patients with changes in severity categorization",[3]; 100 mg group,2 patients
same,SRS-2 Social Communication T-score: patients with categorical improvement,[3]; 100 mg group,3 patients
same,SRS-2 Social Motivation T-score: patients with categorical changes in clinical severity,[3]; 100 mg group,4 patients
same,SRS-2 Total T-Score: patients changing category of severity,[3]; 200 mg group,3 patients
same,"SRS-2 DSM-5 Social, Communication and Interaction T-score: patients with changes in severity categorization",[3]; 200 mg group,4 patients
same,SRS-2 Social Communication T-score: patients with categorical improvement,[3]; 200 mg group,4 patients
same,SRS-2 Social Motivation T-score: patients with categorical changes in clinical severity,[3]; 200 mg group,6 patients
same,SRS-2 DSM-5 Restricted and Repetitive Behavior T-score Mean Change from Baseline,"[3]; DB 100 mg TID, Week 4/LOCF",−0.4
same,SRS-2 DSM-5 Restricted and Repetitive Behavior T-score Treatment effect versus placebo,"[3]; DB 100 mg TID, Week 4/LOCF",7.2
same,"SRS-2 DSM-5 Restricted and Repetitive Behavior T-score change, median","[3]; DB 100 mg TID, Week 4/LOCF","−3, 0, 5"
same,"SRS-2 DSM-5 Social, Communication and Interaction T-score Mean Change from Baseline","[3]; DB 100 mg TID, Week 4/LOCF",0.6
same,"SRS-2 DSM-5 Social, Communication and Interaction T-score Treatment effect versus placebo","[3]; DB 100 mg TID, Week 4/LOCF",4.8
same,"SRS-2 DSM-5 Social, Communication and Interaction T-score change, median","[3]; DB 100 mg TID, Week 4/LOCF","−3, 2, 5"
same,SRS-2 Social Communication T-score Mean Change from Baseline,"[3]; DB 100 mg TID, Week 4/LOCF",1.1
same,SRS-2 Social Communication T-score Treatment effect versus placebo,"[3]; DB 100 mg TID, Week 4/LOCF",6.0
same,"SRS-2 Social Communication T-score change, median","[3]; DB 100 mg TID, Week 4/LOCF","−5, 0, 6"
same,SRS-2 Social-Motivation T-score Mean Change from Baseline,"[3]; DB 100 mg TID, Week 4/LOCF",−1.4
same,SRS-2 Social-Motivation T-score Treatment effect versus placebo,"[3]; DB 100 mg TID, Week 4/LOCF",0.3
same,"SRS-2 Social-Motivation T-score change, median","[3]; DB 100 mg TID, Week 4/LOCF","−7, −4, 8"
same,SRS-2 Total T-score Mean Change from Baseline,"[3]; DB 100 mg TID, Week 4/LOCF",−0.4
same,SRS-2 Total T-score Treatment effect versus placebo,"[3]; DB 100 mg TID, Week 4/LOCF",4.8
same,"SRS-2 Total T-score change, median","[3]; DB 100 mg TID, Week 4/LOCF","−3, −1, 3"
same,SRS-2 DSM-5 Restricted and Repetitive Behavior T-score Mean Change from Baseline,"[3]; DB 200 mg TID, Week 4/LOCF",−7.6
same,SRS-2 DSM-5 Restricted and Repetitive Behavior T-score Treatment effect versus placebo,"[3]; DB 200 mg TID, Week 4/LOCF",−0.0
same,"SRS-2 DSM-5 Restricted and Repetitive Behavior T-score change, median","[3]; DB 200 mg TID, Week 4/LOCF","−22, −3, 3"
same,"SRS-2 DSM-5 Social, Communication and Interaction T-score Mean Change from Baseline","[3]; DB 200 mg TID, Week 4/LOCF",−7.6
same,"SRS-2 DSM-5 Social, Communication and Interaction T-score Treatment effect versus placebo","[3]; DB 200 mg TID, Week 4/LOCF",−3.4
same,"SRS-2 DSM-5 Social, Communication and Interaction T-score change, median","[3]; DB 200 mg TID, Week 4/LOCF","−18, −3, 0"
same,SRS-2 Social Communication T-score Mean Change from Baseline,"[3]; DB 200 mg TID, Week 4/LOCF",−8.3
same,SRS-2 Social Communication T-score Treatment effect versus placebo,"[3]; DB 200 mg TID, Week 4/LOCF",−3.4
same,"SRS-2 Social Communication T-score change, median","[3]; DB 200 mg TID, Week 4/LOCF","−16, −4, −1"
same,SRS-2 Social-Motivation T-score Mean Change from Baseline,"[3]; DB 200 mg TID, Week 4/LOCF",−10.6
same,SRS-2 Social-Motivation T-score Treatment effect versus placebo,"[3]; DB 200 mg TID, Week 4/LOCF",−8.9
same,"SRS-2 Social-Motivation T-score change, median","[3]; DB 200 mg TID, Week 4/LOCF","−21, −6, 0"
same,SRS-2 Total T-score Mean Change from Baseline,"[3]; DB 200 mg TID, Week 4/LOCF",−7.7
same,SRS-2 Total T-score Treatment effect versus placebo,"[3]; DB 200 mg TID, Week 4/LOCF",−2.5
same,"SRS-2 Total T-score change, median","[3]; DB 200 mg TID, Week 4/LOCF","−19, 3, 0"
same,"average improvement of SRS-2 Total, DSM-5 Social Communication and Interaction, Social Communication and Social Motivation T-scores",[3]; L1-79 200 mg treated group,~8 points
same,SRS-2 T-scores: magnitude and number/percent of responders compared to placebo,"[3]; L1-79 200 mg, Week 4/LOCF",greater

# Source: patent US12453709B2, “Compositions and methods for treating autism” (priority 2013, dated 2025)
